Reference: patent US10638756B2, “Molecules having pesticidal utility, and intermediates, compositions, and processes, related thereto” (Dow AgroSciences LLC, priority 2017, dated 2020)

Experiments:
Type in all cases: in vivo
[1] = tested on: Yellow Fever Mosquito (Aedes aegypti); conditions: about 1 day-old larvae, 3 days, scored on mortality
Protocol: Certain molecules disclosed in this document were tested against YFM using procedures described in the following paragraph. In the reporting of the results, the “GPA & YFM Rating Table” was used (See Table Section).
Master plates containing 400 μg of a molecule dissolved in 100 μL of dimethyl sulfoxide (DMSO) (equivalent to a 4000 ppm solution) are used. A master plate of assembled molecules contains 15 μL per well. To this plate, 135 μL of a 90:10 water/acetone mixture is added to each well. A robot (Biomek® NXP Laboratory Automation Workstation) is programmed to dispense 15 μL aspirations from the master plate into an empty 96-well shallow plate (“daughter” plate). There are 6 reps (“daughter” plates) created per master. The created “daughter” plates are then immediately infested with YFM larvae.
The day before plates are to be treated, mosquito eggs are placed in Millipore water containing liver powder to begin hatching (4 g. into 400 mL). After the “daughter” plates are created using the robot, they are infested with 220 μL of the liver powder/larval mosquito mixture (about 1 day-old larvae). After plates are infested with mosquito larvae, a non-evaporative lid is used to cover the plate to reduce drying. Plates are held at room temperature for 3 days prior to grading. After 3 days, each well is observed and scored based on mortality. The results are indicated in the table entitled “Table ABC: Biological Results” (See Table Section).

[2] = tested on: Beet Armyworm (Spodoptera exigua); experiment: Bioassay on Beet Armyworm (BAW), 128-well diet tray assay; conditions: Spodoptera exigua, 168 h; 50 μg/cm^2 on artificial diet, second instar larvae, five to seven days; read-out: BAW % Control (or Mortality) rating
[3] = tested on: Cabbage Looper (Trichoplusia ni); experiment: Bioassay on Cabbage Looper (CL), 128-well diet tray assay; conditions: 168 h, 50 μg/cm^2 on artificial diet, second instar larvae, five to seven days, read-out: CL % Control (or Mortality) rating
In short: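 Activity is mean percent mortality over eight wells of second-instar larvae exposed to diet treated at 50 μg/cm^2 for 5–7 days at 25° C.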

Row | Structure (SMILES) | YFM % Control (or Mortality) rating [1] | mortality at 50 µg/cm2 [2] | mortality at 50 µg/cm2 [3]
1 | O=C(NNc1ncccn1)c1ccc(/C(F)=C/C(c2cc(Cl)c(Cl)c(Cl)c2)C(F)(F)F)cc1Br (stereo not drawn) [F128, (Z)-2-Bromo-N′-(pyrimidin-2-yl)-4-(1,4,4,4-tetrafluoro-3-(3,4,5-trichlorophenyl)but-1-en-1-yl)benzohydrazide] | A (80-100) | 50 to 100% | 50 to 100%
2 | CNN(CC(=O)NCC(F)(F)F)C(=O)c1ccc(/C(F)=C/C(c2cc(Cl)c(Cl)c(Cl)c2)C(F)(F)F)cc1C(F)(F)F (stereo not drawn) [F183, (Z)-2-(2-Methyl-1-(4-(1,4,4,4-tetrafluoro-3-(3,4,5-trichlorophenyl)but-1-en-1-yl)-2-(trifluoromethyl)benzoyl)hydrazinyl)-N-(2,2,2-trifluoroethyl)acetamide] | A (80-100) | 50 to 100% | 50 to 100%
3 | CN(NC(=O)c1ccc(/C(F)=C/C(c2ccc(Cl)c(Cl)c2)C(F)(F)F)cc1C(F)(F)F)c1ncccn1 (stereo not drawn) [F8, (Z)-4-(3-(3,4-Dichlorophenyl)-1,4,4,4-tetrafluorobut-1-en-1-yl)-N′-methyl-N′-(pyrimidin-2-yl)-2-(trifluoromethyl)benzohydrazideazide] | A (80-100) | 50 to 100% | 50 to 100%
4 | C#CCN(NC(=O)c1ccc(/C(F)=C/C(c2cc(Cl)c(Cl)c(Cl)c2)C(F)(F)F)cc1C)c1ncccn1 (stereo not drawn) [F148, (Z)-2-Methyl-N′-(prop-2-yn-1-yl)-N′-(pyrimidin-2-yl)-4-(1,4,4,4-tetrafluoro-3-(3,4,5-trichlorophenyl)but-1-en-1-yl)benzohydrazide] | A (80-100) | 50 to 100% | 50 to 100%
5 | C=CCN(NC(=O)c1ccc(/C(F)=C/C(c2cc(Cl)c(Cl)c(Cl)c2)C(F)(F)F)cc1C(F)(F)F)c1ncccn1 (stereo not drawn) [F152, (Z)—N′-Allyl-N′-(pyrimidin-2-yl)-4-(1,4,4,4-tetrafluoro-3-(3,4,5-trichlorophenyl)but-1-en-1-yl)-2-(trifluoromethyl)benzohydrazide] | A (80-100) | 50 to 100% | 50 to 100%
6 | O=C(NNc1nnn[nH]1)c1ccc(/C(F)=C/C(c2cc(Cl)c(Cl)c(Cl)c2)C(F)(F)F)cc1C(F)(F)F (stereo not drawn) [F95, (Z)-4-(1,4,4,4-Tetrafluoro-3-(3,4,5-trichlorophenyl)but-1-en-1-yl)-N′-(1H-tetrazol-5-yl)-2-(trifluoromethyl)benzohydrazide] | A (80-100) | 50 to 100% | 50 to 100%
7 | O=C(NNc1ccccn1)c1ccc(/C(F)=C/C(c2cc(Cl)c(Cl)c(Cl)c2)C(F)(F)F)cc1C(F)(F)F (stereo not drawn) [F9, (Z)—N′-(Pyridin-2-yl)-4-(1,4,4,4-tetrafluoro-3-(3,4,5-trichlorophenyl)but-1-en-1-yl)-2-(trifluoromethyl)benzohydrazide] | A (80-100) | 50 to 100% | 50 to 100%
8 | CN(C)N(CC(=O)NCC(F)(F)F)C(=O)c1ccc(/C(F)=C/C(c2cc(Cl)c(Cl)c(Cl)c2)C(F)(F)F)cc1C(F)(F)F (stereo not drawn) [F184, (Z)-2-(2,2-dimethyl-1-(4-(1,4,4,4-tetrafluoro-3-(3,4,5-trichlorophenyl)but-1-en-1-yl)-2-(trifluoromethyl)benzoyl)hydrazinyl)-N-(2,2,2-trifluoroethyl)acetamide] | A (80-100) | 50 to 100% | 50 to 100%
9 | CN(NC(=O)c1ccc(/C(F)=C/C(c2cc(Cl)c(Cl)c(Cl)c2)C(F)(F)F)cc1C(F)(F)F)c1ccc(C#N)cn1 (stereo not drawn) [F82, (Z)—N′-(5-Cyanopyridin-2-yl)-N′-methyl-4-(1,4,4,4-tetrafluoro-3-(3,4,5-trichlorophenyl)but-1-en-1-yl)-2-(trifluoromethyl)benzohydrazide] | A (80-100) | 50 to 100% | 50 to 100%
10 | O=C(NNc1ncccc1Cl)c1ccc(/C(F)=C/C(c2cc(Cl)c(Cl)c(Cl)c2)C(F)(F)F)cc1C(F)(F)F (stereo not drawn) [F99, (Z)—N′-(3-Chloropyridin-2-yl)-4-(1,4,4,4-tetrafluoro-3-(3,4,5-trichlorophenyl)but-1-en-1-yl)-2-(trifluoromethyl)benzohydrazide] | A (80-100) | 50 to 100% | 50 to 100%
11 | O=C(NNc1ncccn1)c1ccc(/C(F)=C/C(c2ccc(Br)c(C(F)(F)F)c2)C(F)(F)F)cc1C(F)(F)F (stereo not drawn) [F78, (Z)-4-(3-(4-Bromo-3-(trifluoromethyl)phenyl)-1,4,4,4-tetrafluorobut-1-en-1-yl)-N′-(pyrimidin-2-yl)-2-(trifluoromethyl)benzohydrazide] | A (80-100) | 50 to 100% | 50 to 100%
12 | CN(NC(=O)c1ccc(/C(F)=C/C(c2cc(Cl)c(Cl)c(Cl)c2)C(F)(F)F)cc1Br)c1ncccn1 (stereo not drawn) [F102, (Z)-2-Bromo-N′-methyl-N′-(pyrimidin-2-yl)-4-(1,4,4,4-tetrafluoro-3-(3,4,5-trichlorophenyl)but-1-en-1-yl)benzohydrazide] | A (80-100) | 50 to 100% | 50 to 100%
13 | CN(NC(=O)c1ccc(/C(F)=C/C(c2cc(Cl)c(Cl)c(Cl)c2)C(F)(F)F)cc1C(F)(F)F)c1ccccc1 (stereo not drawn) [F11, (Z)—N′-Methyl-N′-phenyl-4-(1,4,4,4-tetrafluoro-3-(3,4,5-trichlorophenyl)but-1-en-1-yl)-2-(trifluoromethyl)benzohydrazide] | A (80-100) | 50 to 100% | 50 to 100%
14 | CN(NC(=O)c1ccc(/C(F)=C/C(c2ccc(Br)c(C(F)(F)F)c2)C(F)(F)F)cc1C(F)(F)F)c1ncccn1 (stereo not drawn) [F39, (Z)-4-(3-(4-Bromo-3-(trifluoromethyl)phenyl)-1,4,4,4-tetrafluorobut-1-en-1-yl)-N′-methyl-N′-(pyrimidin-2-yl)-2-(trifluoromethyl)benzohydrazide] | A (80-100) | 50 to 100% | 50 to 100%
15 | O=C(NNc1ncccn1)c1ccc(/C(F)=C/C(c2cc(Br)cc(Br)c2)C(F)(F)F)cc1C(F)(F)F (stereo not drawn) [F176, (Z)-4-(3-(3,5-Dibromophenyl)-1,4,4,4-tetrafluorobut-1-en-1-yl)-N′-(pyrimidin-2-yl)-2-(trifluoromethyl)benzohydrazide] | A (80-100) | 50 to 100% | 50 to 100%
16 | COc1ccccc1NNC(=O)c1ccc(/C(F)=C/C(c2cc(Cl)c(Cl)c(Cl)c2)C(F)(F)F)cc1C(F)(F)F (stereo not drawn) [F14, (Z)—N′-(2-Methoxyphenyl)-4-(1,4,4,4-tetrafluoro-3-(3,4,5-trichlorophenyl)but-1-en-1-yl)-2-(trifluoromethyl)benzohydrazide] | A (80-100) | 50 to 100% | 50 to 100%
17 | N#Cc1ccc(/C(F)=C/C(c2cc(Cl)c(Cl)c(Cl)c2)C(F)(F)F)cc1C(F)(F)F (stereo not drawn) [C25, (Z)-4-(1,4,4,4-Tetrafluoro-3-(3,4,5-trichlorophenyl)but-1-en-1-yl)-2-(trifluoromethyl)benzonitrile] | A (80-100) | 50 to 100% | 50 to 100%
18 | O=C(NNc1ccccc1)c1ccc(/C(F)=C/C(c2cc(Cl)c(Cl)c(Cl)c2)C(F)(F)F)cc1C(F)(F)F (stereo not drawn) [F133, (Z)—N′-Phenyl-4-(1,4,4,4-tetrafluoro-3-(3,4,5-trichlorophenyl)but-1-en-1-yl)-2-(trifluoromethyl)benzohydrazide] | A (80-100) | 50 to 100% | 50 to 100%
19 | O=C(NNc1ncccn1)c1ccc(/C(F)=C/C(c2ccc(Cl)c(Cl)c2)C(F)(F)F)cc1C(F)(F)F (stereo not drawn) [F117] | A (80-100) | 50 to 100% | 50 to 100%
20 | Cc1csc(N(N)C(=O)c2ccc(/C(F)=C/C(c3cc(Cl)c(Cl)c(Cl)c3)C(F)(F)F)cc2C(F)(F)F)n1 (stereo not drawn) [F109, (Z)—N-(4-Methylthiazol-2-yl)-4-(1,4,4,4-tetrafluoro-3-(3,4,5-trichlorophenyl)but-1-en-1-yl)-2-(trifluoromethyl)benzohydrazide] | A (80-100) | 50 to 100% | 50 to 100%
